A short description of the series: Measurement of log P values by HPLC on reversed phase columns (methods [a] pH 2.3, [b] pH 2.7, [c] pH 7.8). It is filed as physicochemical. The conditions noted are these: for logP: HPLC reversed phase; for chromatographic logP: reversed phase HPLC columns, pH 2.7, HPLC reversed phase, read-out: logP. Summed up: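 Determined per EEC Directive 79/831 Annex V.A8 by reversed-phase HPLC, 10-95% acetonitrile gradient: [a] pH 2.3, 0.1% phosphoric acid; [b] LC-MS, pH 2.7, 0.1% formic acid; [c] LC-MS, pH 7.8, 0.001 molar ammonium hydrogen carbonate. Calibrated with C3-C16 alkan-2-ones by retention-time interpolation.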

logP and chromatographic logP data for 77 compounds are collected here from patent US20160075653A1, “NEMATICIDAL N-(PHENYLCYCLOALKYL)CARBOXAMIDES AND N-(PHENYLCYCLOALKYL)THIOCARBOXAMIDES” (BAYER CROPSCIENCE AKTIENGESELLSCHAFT, priority 2013, published 2016).

As for `O=C(NC1CCC1c1c(F)cccc1F)c1ncc(C(F)(F)F)cc1Cl` (stereo not drawn) [Example 228], the logP (method [b], pH 2.7) was 3.61^[b].

For the compound `O=C(NC1CC1c1ccccc1Cl)c1ccccc1I` (stereo not drawn) [Example 229], the logP (method [b], pH 2.7) is 3.14^[b]. Same read-out and setting: for `O=C(NC1CC1c1ccccc1Cl)c1ccccc1C(F)(F)F` (stereo not drawn) [Example 230] the value was 3.13^[b]. Still for that read-out and setting: for `Cn1cc(C(=O)NC2CC2c2ccccc2Cl)c(C(F)F)n1` (stereo not drawn) [Example 231] the value was 2.45^[b].

With `O=C(NC1CC1c1ccccc1C(F)(F)F)c1ccccc1I` (stereo not drawn) [Example 232], under “method [b], pH 2.7”, the logP was 3.31^[b].

Take `O=C(NC1CC1c1ccccc1C(F)(F)F)c1ccccc1C(F)(F)F` (stereo not drawn) [Example 233]: the logP (method [b], pH 2.7) was 3.29^[b]. Consider `Cn1cc(C(=O)NC2CC2c2ccccc2C(F)(F)F)c(C(F)F)n1` (stereo not drawn) [Example 234], for which, where the note is “method [b], pH 2.7”, the logP is 2.64^[b]. `O=C(NC1CCC1c1ccccc1Cl)c1ncc(C(F)(F)F)cc1Cl` (stereo not drawn) [Example 237]: the logP (method [b], pH 2.7) is 3.96^[b]. In the case of `O=C(NC1CCC1c1ccccc1Cl)c1ccccc1Cl` (stereo not drawn) [Example 239], the logP (method [b], pH 2.7) is 3.30^[b]. Take `O=C(NC1CC1c1ccc(Cl)cc1)c1c(F)cccc1C(F)(F)F` (stereo not drawn) [Example 270]: the logP was 3.08^[b] (method [b] (pH 2.7)) and 3.03^[c]; (method [c] pH 7.8). The corresponding values for `O=C(NC1CC1c1ccc(Cl)cc1)c1ccccc1Br` (stereo not drawn) [Example 272] are 2.82^[b] and 2.76^[c];. The corresponding values for `O=C(NC1CC1c1ccc(Cl)cc1)c1ccccc1Cl` (stereo not drawn) [Example 275] are 2.77^[b] and 2.71^[c];. As to `Cc1nn(C)cc1C(=O)NC1CCCC1c1ccc(Cl)cc1` (stereo not drawn) [Example 277], the logP (method [b] (pH 2.7)) was 2.31^[b]. On the same count and under the same terms, as for `O=C(NC1CCCC1c1ccc(Cl)cc1)c1ccccc1Cl` (stereo not drawn) [Example 278], the figure is 3.45^[b]; as for `O=C(NC1CCCC1c1ccc(Cl)cc1)c1ccccc1C(F)(F)F` (stereo not drawn) [Example 279], 3.64^[b]; as for `O=C(NC1CCCC1c1ccc(Cl)cc1)c1ccccc1I` (stereo not drawn) [Example 280], 3.64^[b]. Still for that read-out and setting: as for `O=C(NC1CCCC1c1ccc(Cl)cc1)c1cccnc1Cl` (stereo not drawn) [Example 281], the figure is 2.81^[b]; as for `O=C(NC1CCCC1c1ccc(Cl)cc1)c1c(F)cccc1F` (stereo not drawn) [Example 282], 3.28^[b]. Take `O=C(NC1CCCC1c1ccc(Cl)cc1)c1cccnc1C(F)(F)F` (stereo not drawn) [Example 283]: the chromatographic logP (method [b] (pH 2.7)) worked out at 2.83. Take `Cc1nc(C)c(C(=O)NC2CCCC2c2ccc(Cl)cc2)s1` (stereo not drawn) [Example 284]: the logP (method [b] (pH 2.7)) is 3.11^[b]. On the same count and under the same terms, as for `O=C(NC1CCCC1c1ccccc1C(F)(F)F)c1ccccc1I` (stereo not drawn) [Example 285], the figure is 3.81^[b].

In the case of `O=C(NC1CCCC1c1ccccc1C(F)(F)F)c1ccccc1C(F)(F)F` (stereo not drawn) [Example 286], the logP (method [b] (pH 2.7)) is 3.79^[b]. Same read-out and setting: for `Cn1cc(C(=O)NC2CCCC2c2ccccc2C(F)(F)F)c(C(F)F)n1` (stereo not drawn) [Example 287] the value was 3.06^[b]. On to `O=C(N[C@@H]1CCC[C@@H]1c1ccccc1C(F)(F)F)c1cccnc1C(F)(F)F` [Example 290], for which the chromatographic logP (method [b] (pH 2.7)) turned out to be 3.29. In the case of `Cc1nc(C)c(C(=O)NC2CCCC2c2ccccc2Cl)s1` (stereo not drawn) [Example 291], the logP (method [b] (pH 2.7)) is 2.73^[b].

For the compound `Cc1nn(C)cc1C(=O)NC1CCCC1c1ccccc1Cl` (stereo not drawn) [Example 292], the logP (method [b] (pH 2.7)) is 2.24^[b]. Same read-out and setting: as for `O=C(NC1CCCC1c1ccccc1Cl)c1cccnc1Cl` (stereo not drawn) [Example 293], the figure is 2.64^[b]; as for `O=C(NC1CCCC1c1ccccc1Cl)c1ccccc1Cl` (stereo not drawn) [Example 294], 3.42^[b]. Same read-out and setting: for `O=C(NC1CCCC1c1ccccc1Cl)c1ccccc1I` (stereo not drawn) [Example 295] the value was 3.51^[b]. `O=C(NC1CCCC1c1ccccc1C(F)(F)F)c1ccccc1Cl` (stereo not drawn) [Example 300]: the logP (method [b] (pH 2.7)) is 3.56^[b]. Still for that read-out and setting: for `O=C(NC1CCCC1c1ccccc1C(F)(F)F)c1cccnc1Cl` (stereo not drawn) [Example 301] the value was 2.90^[b].

Regarding `O=C(NC1CCCC1c1ccc(C(F)(F)F)cc1)c1ccccc1Cl` (stereo not drawn) [Example 305], the logP runs as follows: (method [b] (pH 2.7)) 3.68^[b]; (method [c] pH 7.8) 3.63^[c];.

In the case of `CN(C(=O)c1ccccc1C(F)(F)F)C1CCCC1c1ccc(C(F)(F)F)cc1` (stereo not drawn) [Example 307], the logP reads like this: (method [b] (pH 2.7)) 4.46^[b]; (method [c] pH 7.8) 4.40^[c];.

For `Cc1nc(C)c(C(=O)NC2CCCC2c2ccccc2C(F)(F)F)s1` (stereo not drawn) [Example 308], the logP (method [b] (pH 2.7)) is 2.97^[b]. The same measure, in the same setting: for `O=C(NC1CCCC1c1ccccc1C(F)(F)F)c1cccnc1C(F)(F)F` (stereo not drawn) [Example 309] the value was 3.22^[b]; for `Cc1nn(C)cc1C(=O)NC1CCCC1c1ccccc1C(F)(F)F` (stereo not drawn) [Example 310], 2.47^[b].

Regarding `Cc1nc(C)c(C(=O)NC2CCCC2c2c(F)cccc2F)s1` (stereo not drawn) [Example 312], the logP (method [b] (pH 2.7)) was 2.65^[b].

`O=C(NC1CCCC1c1c(F)cccc1F)c1c(F)cccc1F` (stereo not drawn) [Example 314]: the logP (method [b] (pH 2.7)) is 3.05^[b].

`O=C(NC1CCCC1c1ccccc1C(F)(F)F)c1c(F)cccc1F` (stereo not drawn) [Example 320]: the logP (method [b] (pH 2.7)) is 3.38^[b]. The same measure, in the same setting: for `O=C(NC1CCCC1c1c(F)cccc1F)c1cccnc1Cl` (stereo not drawn) [Example 321] the value was 2.51^[b]. On the same count and under the same terms, for `Cc1nn(C)cc1C(=O)NC1CCCC1c1c(F)cccc1F` (stereo not drawn) [Example 324] the value was 2.13^[b]; for `Cc1nc(C)c(C(=O)NC2CCCC2c2ccccc2Br)s1` (stereo not drawn) [Example 344], 2.86^[b]; for `Cc1nn(C)cc1C(=O)NC1CCCC1c1ccccc1Br` (stereo not drawn) [Example 345], 3.69^[b]. Still for that read-out and setting: as for `O=C(NC1CCCC1c1ccccc1Br)c1c(F)cccc1F` (stereo not drawn) [Example 347], the figure is 3.35^[b]. For `O=C(NC1CCCC1c1ccc(Cl)cc1Cl)c1c(F)cccc1F` (stereo not drawn) [Example 350], the logP (method [b] (pH 2.7)) is 3.73^[b]. The same measure, in the same setting: for `O=C(NC1CCCC1c1ccc(Cl)cc1Cl)c1ccccc1Cl` (stereo not drawn) [Example 351] the value was 3.87^[b]. Still for that read-out and setting: for `Cc1nc(C)c(C(=O)NC2CCCC2c2ccc(Cl)cc2Cl)s1` (stereo not drawn) [Example 354] the value was 3.24^[b]; for `O=C(NC1CCCC1c1ccccc1Br)c1ccccc1C(F)(F)F` (stereo not drawn) [Example 355], 3.71^[b]; for `O=C(NC1CCCC1c1ccc(Cl)cc1Cl)c1cccnc1Cl` (stereo not drawn) [Example 356], 3.20^[b]. As for `O=C(NC1CCCC1c1ccccc1Br)c1ccccc1I` (stereo not drawn) [Example 357], the logP (method [b] (pH 2.7)) is 3.67^[b].

Turning to `Cc1nn(C)cc1C(=O)NC1CCCC1c1ccc(Cl)cc1Cl` (stereo not drawn) [Example 359], the logP (method [b] (pH 2.7)) was 2.67^[b]. Still for that read-out and setting: for `O=C(NC1CCCC1c1ccccc1Cl)c1cccnc1C(F)(F)F` (stereo not drawn) [Example 361] the value was 3.01^[b]. Still for that read-out and setting: for `O=C(NC1CCCC1c1c(F)cccc1F)c1cccnc1C(F)(F)F` (stereo not drawn) [Example 362] the value was 2.86^[b]. In the case of `O=C(NC1CCCC1c1ccc(C(F)(F)F)cc1)c1ccccc1I` (stereo not drawn) [Example 363], the logP reads like this: (method [b] (pH 2.7)) 3.86^[b]; (method [c] pH 7.8) 3.79^[c];. As to `O=C(NC1CCCCC1c1ccc(Cl)cc1)c1ccccc1C(F)(F)F` (stereo not drawn) [Example 364], the logP (method [b] (pH 2.7)) was 3.84^[b]. As for `O=C(NC1CCCCC1c1ccc(C(F)(F)F)cc1)c1ccccc1C(F)(F)F` (stereo not drawn) [Example 365], the logP (method [b] (pH 2.7)) was 4.12^[b] and the logP (method [c] pH 7.8) is 4.05^[c];.

On to `Cc1nc(C)c(C(=O)NC2CCCCC2c2ccc(Cl)cc2)s1` (stereo not drawn) [Example 366], for which the logP (method [b] (pH 2.7)) was 3.03^[b]. Still for that read-out and setting: for `Cc1nn(C)cc1C(=O)NC1CCCCC1c1ccc(Cl)cc1` (stereo not drawn) [Example 367] the value was 2.49^[b].

As to `O=C(NC1CCCCC1c1ccc(Cl)cc1)c1cccnc1C(F)(F)F` (stereo not drawn) [Example 368], the logP (method [b] (pH 2.7)) was 3.31^[b]. On the same count and under the same terms, as for `O=C(NC1CCCCC1c1ccc(Cl)cc1)c1c(F)cccc1F` (stereo not drawn) [Example 369], the figure is 3.50^[b]; as for `O=C(NC1CCCCC1c1ccc(Cl)cc1)c1cccnc1Cl` (stereo not drawn) [Example 370], 2.99^[b]. On the same count and under the same terms, for `O=C(NC1CCCCC1c1ccc(Cl)cc1)c1ccccc1Cl` (stereo not drawn) [Example 371] the value was 3.65^[b]; for `O=C(NC1CCCCC1c1ccc(Cl)cc1)c1ccccc1I` (stereo not drawn) [Example 372], 3.84^[b]. For the compound `O=C(NC1CCCCC1c1ccccc1C(F)(F)F)c1ccccc1I` (stereo not drawn) [Example 373], the logP (method [b] (pH 2.7)) was 4.22^[b].

As for `O=C(NC1CCCCC1c1ccccc1C(F)(F)F)c1ccccc1C(F)(F)F` (stereo not drawn) [Example 374], the logP (method [b] (pH 2.7)) is 4.21^[b]. The same measure, in the same setting: for `O=C(NC1CCCCC1c1ccccc1C(F)(F)F)c1cccnc1C(F)(F)F` (stereo not drawn) [Example 375] the value was 3.68^[b]; for `Cc1nc(C)c(C(=O)NC2CCCCC2c2ccccc2Cl)s1` (stereo not drawn) [Example 376], 3.24^[b]; for `Cc1nn(C)cc1C(=O)NC1CCCCC1c1ccccc1Cl` (stereo not drawn) [Example 377], 2.64^[b]. The same measure, in the same setting: for `O=C(NC1CCCCC1c1ccccc1Cl)c1cccnc1C(F)(F)F` (stereo not drawn) [Example 378] the value was 3.45^[b]. Take `O=C(NC1CCCCC1c1ccccc1Cl)c1c(F)cccc1F` (stereo not drawn) [Example 379]: the logP (method [b] (pH 2.7)) was 3.67^[b].

With `O=C(NC1CCCCC1c1ccccc1Cl)c1cccnc1Cl` (stereo not drawn) [Example 380], where the note is “method [b] (pH 2.7)”, the logP is 3.16^[b].

As to `O=C(NC1CCCCC1c1ccccc1Cl)c1ccccc1Cl` (stereo not drawn) [Example 381], where the note is “method [b] (pH 2.7)”, the logP was 3.88^[b]. The same measure, in the same setting: for `O=C(NC1CCCCC1c1ccccc1Cl)c1ccccc1I` (stereo not drawn) [Example 382] the value was 4.02^[b]; for `O=C(NC1CCCCC1c1ccccc1Cl)c1ccccc1C(F)(F)F` (stereo not drawn) [Example 383], 4.01^[b]. The same measure, in the same setting: for `Cc1nn(C)cc1C(=O)NC1CCCCC1c1ccccc1C(F)(F)F` (stereo not drawn) [Example 384] the value was 2.87^[b]; for `O=C(NC1CCCCC1c1ccccc1C(F)(F)F)c1cccnc1C(F)(F)F` (stereo not drawn) [Example 385], 3.61^[b]; for `O=C(NC1CCCCC1c1ccccc1C(F)(F)F)c1c(F)cccc1F` (stereo not drawn) [Example 386], 3.80^[b].
